# Assays:
# [1] = molecular target: Tyrosine-protein kinase Lyn (Homo sapiens) (UniProt P07948); test: Inhibition of LYN (unknown origin) at 30 uM by microfluidic assay relative to control
# [2] = molecular target: Tyrosine-protein kinase ABL1 (Homo sapiens) (UniProt P00519); test: Inhibition of ABL (unknown origin) at 30 uM by microfluidic assay relative to control
# [3] = molecular target: Glycogen synthase kinase-3 (Homo sapiens) (UniProt P49840+P49841); test: Inhibition of GSK3 (unknown origin) at 30 uM by microfluidic assay relative to control; assay type: protein assay
# [4] = molecular target: Insulin receptor (Homo sapiens) (UniProt P06213); test: Inhibition of InsR (unknown origin) at 30 uM by microfluidic assay relative to control
# Sequence of Insulin receptor (Homo sapiens) (P06213 28-758 limits assumed): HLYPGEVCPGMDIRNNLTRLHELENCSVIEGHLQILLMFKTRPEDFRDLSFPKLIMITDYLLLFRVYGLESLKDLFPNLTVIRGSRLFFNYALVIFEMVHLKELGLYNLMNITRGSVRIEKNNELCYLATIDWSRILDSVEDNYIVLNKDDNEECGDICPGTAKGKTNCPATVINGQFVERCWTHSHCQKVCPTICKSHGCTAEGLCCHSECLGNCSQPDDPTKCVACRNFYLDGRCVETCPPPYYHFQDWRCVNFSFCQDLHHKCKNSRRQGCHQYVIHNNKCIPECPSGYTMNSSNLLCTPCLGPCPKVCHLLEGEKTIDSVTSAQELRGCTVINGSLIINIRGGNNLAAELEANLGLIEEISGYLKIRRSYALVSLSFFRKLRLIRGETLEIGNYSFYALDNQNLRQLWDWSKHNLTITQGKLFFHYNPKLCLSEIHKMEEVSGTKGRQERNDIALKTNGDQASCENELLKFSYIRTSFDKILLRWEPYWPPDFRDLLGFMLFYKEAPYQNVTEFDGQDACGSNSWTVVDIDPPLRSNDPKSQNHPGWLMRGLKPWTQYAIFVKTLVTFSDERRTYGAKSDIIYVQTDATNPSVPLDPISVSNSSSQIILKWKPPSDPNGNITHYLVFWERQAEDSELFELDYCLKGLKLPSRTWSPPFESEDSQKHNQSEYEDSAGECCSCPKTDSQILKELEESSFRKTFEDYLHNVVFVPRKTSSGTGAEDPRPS
# Sequence of Insulin receptor (Homo sapiens) (P06213 763-1382 limits assumed): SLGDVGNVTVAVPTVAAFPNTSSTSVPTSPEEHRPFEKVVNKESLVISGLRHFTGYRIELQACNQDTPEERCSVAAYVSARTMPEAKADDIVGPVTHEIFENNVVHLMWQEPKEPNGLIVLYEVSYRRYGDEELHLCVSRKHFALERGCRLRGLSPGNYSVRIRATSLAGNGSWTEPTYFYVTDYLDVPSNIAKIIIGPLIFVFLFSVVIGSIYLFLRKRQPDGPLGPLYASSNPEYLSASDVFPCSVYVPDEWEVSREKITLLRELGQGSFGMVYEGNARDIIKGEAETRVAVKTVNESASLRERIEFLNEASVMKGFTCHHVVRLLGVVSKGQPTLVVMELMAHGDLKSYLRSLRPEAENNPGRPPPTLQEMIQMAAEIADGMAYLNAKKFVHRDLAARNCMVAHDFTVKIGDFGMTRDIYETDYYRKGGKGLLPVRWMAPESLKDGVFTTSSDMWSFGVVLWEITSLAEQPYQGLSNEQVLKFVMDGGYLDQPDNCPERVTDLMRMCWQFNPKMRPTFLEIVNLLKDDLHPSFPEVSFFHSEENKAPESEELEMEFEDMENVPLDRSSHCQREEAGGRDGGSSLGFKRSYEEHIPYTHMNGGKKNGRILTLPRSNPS
# [5] = molecular target: Tyrosine-protein kinase Lck (Homo sapiens) (UniProt P06239); test: Inhibition of LCK (unknown origin) at 30 uM by microfluidic assay relative to control
# Sequence of Tyrosine-protein kinase Lck (Homo sapiens) (P06239 2-509 limits assumed): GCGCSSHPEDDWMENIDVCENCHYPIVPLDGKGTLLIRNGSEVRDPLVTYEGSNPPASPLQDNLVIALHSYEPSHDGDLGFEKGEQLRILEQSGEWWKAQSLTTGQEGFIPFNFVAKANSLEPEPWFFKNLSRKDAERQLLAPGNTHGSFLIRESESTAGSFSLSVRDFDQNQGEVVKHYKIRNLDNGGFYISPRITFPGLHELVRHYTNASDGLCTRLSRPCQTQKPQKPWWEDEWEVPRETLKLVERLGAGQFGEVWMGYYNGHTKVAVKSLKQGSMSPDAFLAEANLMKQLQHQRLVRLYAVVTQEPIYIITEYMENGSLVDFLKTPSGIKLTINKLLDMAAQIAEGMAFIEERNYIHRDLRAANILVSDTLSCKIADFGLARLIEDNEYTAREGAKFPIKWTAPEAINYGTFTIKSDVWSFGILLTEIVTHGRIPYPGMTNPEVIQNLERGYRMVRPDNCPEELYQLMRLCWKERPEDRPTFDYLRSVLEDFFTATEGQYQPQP
# [6] = molecular target: T1, Serine/threonine-protein kinase Chk1 (Homo sapiens) (UniProt O14757); test: Inhibition of CHK1 (unknown origin) at 30 uM by microfluidic assay relative to control
# T1 sequence (whole entry): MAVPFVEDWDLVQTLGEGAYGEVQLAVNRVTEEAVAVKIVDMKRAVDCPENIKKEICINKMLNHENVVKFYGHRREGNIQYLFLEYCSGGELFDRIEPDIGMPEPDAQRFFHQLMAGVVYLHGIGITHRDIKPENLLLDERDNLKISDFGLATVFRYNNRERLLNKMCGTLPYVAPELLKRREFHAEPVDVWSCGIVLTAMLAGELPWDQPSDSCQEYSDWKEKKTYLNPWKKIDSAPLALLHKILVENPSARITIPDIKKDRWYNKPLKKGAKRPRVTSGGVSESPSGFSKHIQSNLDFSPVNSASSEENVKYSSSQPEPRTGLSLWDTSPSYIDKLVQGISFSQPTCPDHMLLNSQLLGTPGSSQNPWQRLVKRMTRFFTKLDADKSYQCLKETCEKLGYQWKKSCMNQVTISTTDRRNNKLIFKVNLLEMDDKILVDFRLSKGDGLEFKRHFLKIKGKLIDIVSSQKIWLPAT
# [7] = molecular target: Proto-oncogene tyrosine-protein kinase Src (Homo sapiens) (UniProt P12931); test: Inhibition of SRC (unknown origin) at 30 uM by microfluidic assay relative to control
# Sequence of Proto-oncogene tyrosine-protein kinase Src (Homo sapiens) (P12931 2-536 limits assumed): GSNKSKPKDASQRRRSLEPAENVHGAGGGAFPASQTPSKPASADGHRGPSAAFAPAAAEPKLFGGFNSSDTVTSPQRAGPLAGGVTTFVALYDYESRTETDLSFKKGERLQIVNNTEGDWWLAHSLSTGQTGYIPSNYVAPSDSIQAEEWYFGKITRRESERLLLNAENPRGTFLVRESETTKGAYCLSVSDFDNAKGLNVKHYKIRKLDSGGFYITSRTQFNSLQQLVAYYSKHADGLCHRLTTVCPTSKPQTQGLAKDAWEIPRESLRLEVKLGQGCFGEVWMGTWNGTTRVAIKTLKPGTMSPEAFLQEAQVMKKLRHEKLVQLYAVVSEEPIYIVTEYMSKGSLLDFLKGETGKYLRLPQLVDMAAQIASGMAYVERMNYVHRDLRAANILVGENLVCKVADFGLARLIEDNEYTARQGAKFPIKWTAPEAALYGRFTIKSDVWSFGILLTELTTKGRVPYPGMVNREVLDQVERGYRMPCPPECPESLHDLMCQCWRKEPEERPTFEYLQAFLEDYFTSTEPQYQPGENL
# [8] = molecular target: Epidermal growth factor receptor (Homo sapiens, UniProt P00533); test: Inhibition of EGFR (unknown origin) by microfluidic assay relative to control
# Sequence of Epidermal growth factor receptor (P00533 whole entry): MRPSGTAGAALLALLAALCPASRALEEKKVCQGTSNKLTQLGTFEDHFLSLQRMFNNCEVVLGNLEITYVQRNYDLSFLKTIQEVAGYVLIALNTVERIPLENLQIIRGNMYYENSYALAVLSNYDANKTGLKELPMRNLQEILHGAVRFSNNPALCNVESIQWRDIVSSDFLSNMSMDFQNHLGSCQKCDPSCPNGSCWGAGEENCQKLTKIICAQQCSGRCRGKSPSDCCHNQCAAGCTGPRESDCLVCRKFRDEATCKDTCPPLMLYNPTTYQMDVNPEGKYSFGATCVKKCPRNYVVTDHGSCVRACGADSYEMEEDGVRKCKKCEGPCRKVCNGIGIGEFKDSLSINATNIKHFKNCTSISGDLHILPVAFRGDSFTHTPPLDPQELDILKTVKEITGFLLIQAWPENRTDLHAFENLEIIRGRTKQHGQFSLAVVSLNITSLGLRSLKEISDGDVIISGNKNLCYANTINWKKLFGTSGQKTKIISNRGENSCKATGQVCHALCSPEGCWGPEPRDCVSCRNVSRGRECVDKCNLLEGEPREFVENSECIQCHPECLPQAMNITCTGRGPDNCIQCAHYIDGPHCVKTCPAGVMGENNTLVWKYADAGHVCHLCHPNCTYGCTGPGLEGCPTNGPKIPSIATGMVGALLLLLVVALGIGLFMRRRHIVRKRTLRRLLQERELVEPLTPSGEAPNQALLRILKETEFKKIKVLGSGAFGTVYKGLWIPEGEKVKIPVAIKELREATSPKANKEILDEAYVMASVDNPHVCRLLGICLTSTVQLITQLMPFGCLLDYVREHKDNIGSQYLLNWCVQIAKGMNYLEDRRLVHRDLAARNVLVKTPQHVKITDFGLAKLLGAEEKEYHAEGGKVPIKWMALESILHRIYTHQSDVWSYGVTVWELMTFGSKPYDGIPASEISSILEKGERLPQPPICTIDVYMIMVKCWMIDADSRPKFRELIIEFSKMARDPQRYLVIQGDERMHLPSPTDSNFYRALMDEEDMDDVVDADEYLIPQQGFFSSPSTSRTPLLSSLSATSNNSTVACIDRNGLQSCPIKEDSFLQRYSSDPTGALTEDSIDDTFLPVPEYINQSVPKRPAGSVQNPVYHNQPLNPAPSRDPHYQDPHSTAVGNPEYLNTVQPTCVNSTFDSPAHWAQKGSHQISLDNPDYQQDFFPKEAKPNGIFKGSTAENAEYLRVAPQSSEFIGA
# [9] = molecular target: Hepatocyte growth factor receptor (Homo sapiens) (UniProt P08581); test: Inhibition of MET (unknown origin) at 30 uM by microfluidic assay relative to control
# [10] = molecular target: Protein kinase C (PKC) (Homo sapiens) (UniProt O94806+P41743+P17252+P05129+Q05655+P05771+Q05513+Q02156+P24723+Q15139+Q04759); test: Inhibition of PKC (unknown origin) at 30 uM by microfluidic assay relative to control
# [11] = molecular target: T2, Serine/threonine-protein kinase Chk1 (Homo sapiens, UniProt O14757); test: Inhibition of CHK1 (unknown origin) by microfluidic assay relative to control
# T2 sequence (O14757 whole entry): T1 sequence (whole entry)
# [12] = molecular target: Mitogen-activated protein kinase 1 (Homo sapiens) (UniProt P28482); test: Inhibition of Erk2 (unknown origin) at 30 uM by microfluidic assay relative to control
# [13] = molecular target: Tyrosine-protein kinase Fyn (Homo sapiens) (UniProt P06241); test: Inhibition of FYN (unknown origin) at 30 uM by microfluidic assay relative to control
# Sequence of Tyrosine-protein kinase Fyn (Homo sapiens) (P06241 2-537 limits assumed): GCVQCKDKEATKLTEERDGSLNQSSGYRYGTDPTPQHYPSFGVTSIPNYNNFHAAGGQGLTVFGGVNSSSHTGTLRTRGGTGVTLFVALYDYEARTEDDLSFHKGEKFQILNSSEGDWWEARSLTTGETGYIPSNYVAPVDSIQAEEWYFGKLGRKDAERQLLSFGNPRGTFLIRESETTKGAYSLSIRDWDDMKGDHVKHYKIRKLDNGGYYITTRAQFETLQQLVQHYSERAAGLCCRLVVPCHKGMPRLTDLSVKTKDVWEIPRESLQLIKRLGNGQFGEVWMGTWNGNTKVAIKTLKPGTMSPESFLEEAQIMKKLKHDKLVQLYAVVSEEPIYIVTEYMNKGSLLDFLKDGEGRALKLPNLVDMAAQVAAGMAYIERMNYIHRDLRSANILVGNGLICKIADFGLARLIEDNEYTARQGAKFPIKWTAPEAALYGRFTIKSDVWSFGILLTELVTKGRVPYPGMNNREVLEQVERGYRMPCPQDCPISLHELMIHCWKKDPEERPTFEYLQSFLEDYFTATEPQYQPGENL
# [14] = molecular target: Mitogen-activated protein kinase 14 (Homo sapiens) (UniProt Q16539); test: Inhibition of p38a (unknown origin) at 30 uM by microfluidic assay relative to control
# [15] = molecular target: Mitogen-activated protein kinase 3 (Homo sapiens) (UniProt P27361); test: Inhibition of Erk1 (unknown origin) at 30 uM by microfluidic assay relative to control
# Sequence of Mitogen-activated protein kinase 3 (Homo sapiens) (P27361 whole entry): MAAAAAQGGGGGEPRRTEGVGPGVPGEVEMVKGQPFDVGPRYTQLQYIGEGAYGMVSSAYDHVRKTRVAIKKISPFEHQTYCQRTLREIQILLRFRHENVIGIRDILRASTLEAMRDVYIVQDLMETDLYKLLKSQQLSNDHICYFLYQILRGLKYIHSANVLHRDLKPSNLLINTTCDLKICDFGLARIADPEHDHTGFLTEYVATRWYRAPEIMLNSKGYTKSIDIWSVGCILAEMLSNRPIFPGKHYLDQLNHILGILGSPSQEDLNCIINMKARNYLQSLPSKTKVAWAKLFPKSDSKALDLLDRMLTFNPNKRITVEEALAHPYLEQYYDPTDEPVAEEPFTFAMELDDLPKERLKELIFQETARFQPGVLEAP
# Sequence of Tyrosine-protein kinase Lyn (Homo sapiens) (P07948 2-512 limits assumed): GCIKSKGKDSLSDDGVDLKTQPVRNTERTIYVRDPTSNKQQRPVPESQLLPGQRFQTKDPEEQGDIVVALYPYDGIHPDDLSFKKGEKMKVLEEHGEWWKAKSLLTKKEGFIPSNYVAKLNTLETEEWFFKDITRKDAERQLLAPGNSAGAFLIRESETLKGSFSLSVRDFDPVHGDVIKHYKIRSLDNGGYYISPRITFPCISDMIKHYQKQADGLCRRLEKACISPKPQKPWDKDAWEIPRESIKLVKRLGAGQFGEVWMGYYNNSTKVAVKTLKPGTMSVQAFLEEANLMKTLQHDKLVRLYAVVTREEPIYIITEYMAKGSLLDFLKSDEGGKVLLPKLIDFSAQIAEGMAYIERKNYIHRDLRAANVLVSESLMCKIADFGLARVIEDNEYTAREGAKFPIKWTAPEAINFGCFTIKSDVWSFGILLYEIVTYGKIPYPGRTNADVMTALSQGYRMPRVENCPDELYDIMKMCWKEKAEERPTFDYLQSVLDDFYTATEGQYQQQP
smiles,measurement,setting,value
Cc1[nH]c(-c2ccccc2)c(-c2ccccc2)c1C(=O)c1coc2ccc(O)cc12,inhibition,[1],21%
same,inhibition,[2],3%
same,inhibition,[3],3%
same,inhibition,[4],2%
same,inhibition,[5],32%
same,inhibition,[6],90%
same,inhibition,[7],32%
same,IC50,[8],3.67 µM
same,inhibition,[9],32%
same,inhibition,[10],32%
same,IC50,[11],450 nM
same,inhibition,[12],3%
same,inhibition,[13],23%
same,inhibition,[14],24%
same,inhibition,[15],4%
CC(=O)c1nn(-c2ccccc2)cc1C(=O)c1c(C)[nH]c(-c2ccccc2)c1-c1ccccc1,inhibition,[1],3%
same,inhibition,[2],2%
same,inhibition,[3],12%
same,inhibition,[4],2%
same,inhibition,[5],22%
same,inhibition,[6],100%
same,inhibition,[7],21%
same,IC50,[8],4.67 µM
same,inhibition,[9],32%
same,inhibition,[10],33%
same,IC50,[11],120 nM
same,inhibition,[12],21%
same,inhibition,[13],2%
same,inhibition,[14],3%
same,inhibition,[15],3%
Cc1[nH]c(-c2ccccc2)c(-c2ccccc2)c1C(=O)c1cn(-c2ccccc2)nc1-c1ccccc1,inhibition,[1],24%
same,inhibition,[2],3%
same,inhibition,[3],3%
same,inhibition,[4],4%
same,inhibition,[5],44%
same,inhibition,[6],78%
same,inhibition,[7],12%
same,IC50,[8],2.56 µM
same,inhibition,[9],45%
same,inhibition,[10],67%
same,IC50,[11],910 nM
same,inhibition,[12],35%
same,inhibition,[13],21%
same,inhibition,[14],12%
same,inhibition,[15],7%
CCOC(=O)c1nn(-c2ccccc2)cc1C(=O)c1c(C)[nH]c(-c2ccccc2)c1-c1ccccc1,inhibition,[1],5%
same,inhibition,[2],2%
same,inhibition,[3],13%
same,inhibition,[4],2%
same,inhibition,[5],23%
same,inhibition,[6],85%
same,inhibition,[7],23%
same,IC50,[8],3.22 µM
same,inhibition,[9],6%
same,inhibition,[10],12%
same,IC50,[11],670 nM
same,inhibition,[12],32%
same,inhibition,[13],21%
same,inhibition,[14],2%
same,inhibition,[15],7%
Cc1[nH]c(-c2ccccc2)c(-c2ccccc2)c1-c1ccc(NC(=O)c2ccccc2)c(=O)o1,inhibition,[1],33%
same,inhibition,[2],2%
same,inhibition,[3],2%
same,inhibition,[4],3%
same,inhibition,[5],34%
same,inhibition,[6],80%
same,inhibition,[7],12%
same,IC50,[8],2.89 µM
same,inhibition,[9],22%
same,inhibition,[10],65%
same,IC50,[11],780 nM
same,inhibition,[12],4%
same,inhibition,[13],21%
same,inhibition,[14],32%
same,inhibition,[15],5%
Cc1[nH]c(-c2ccccc2)c(-c2ccccc2)c1-c1nnc(C)c2nn(-c3ccccc3)cc12,inhibition,[1],3%
same,inhibition,[2],1%
same,inhibition,[3],2%
same,inhibition,[4],1%
same,inhibition,[5],43%
same,inhibition,[6],83%
same,inhibition,[7],43%
same,IC50,[8],3.89 µM
same,inhibition,[9],5%
same,inhibition,[10],13%
same,IC50,[11],700 nM
same,inhibition,[12],32%
same,inhibition,[13],12%
same,inhibition,[14],4%
same,inhibition,[15],6%
